molecular target: human P2X3 receptor (Homo sapiens (Human), UniProt P56373); assay: Evaluation of human P2X3 receptor inhibitory activity (Fluo-3 calcium fluorescence, FDSS 3000, ATP stimulation); format: cell-based; details: C6BU-1 cells stably expressing human P2X3 receptor;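 note: stimulus was 50 nM ATP with fluorescence followed for 3 min, and the response per well was peak post-ATP fluorescence divided by the reading at measurement start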
Sequence (P56373 whole entry): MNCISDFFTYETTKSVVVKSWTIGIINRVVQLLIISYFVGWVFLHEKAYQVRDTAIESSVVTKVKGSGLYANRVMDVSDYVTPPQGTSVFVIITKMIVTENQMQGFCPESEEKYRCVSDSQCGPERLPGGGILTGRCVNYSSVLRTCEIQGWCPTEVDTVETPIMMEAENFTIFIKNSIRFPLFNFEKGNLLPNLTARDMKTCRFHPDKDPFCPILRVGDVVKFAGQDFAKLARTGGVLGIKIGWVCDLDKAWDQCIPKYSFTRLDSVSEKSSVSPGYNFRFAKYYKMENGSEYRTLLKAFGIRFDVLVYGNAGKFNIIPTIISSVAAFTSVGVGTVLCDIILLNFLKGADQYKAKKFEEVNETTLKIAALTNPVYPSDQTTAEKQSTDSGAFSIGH

Structure (SMILES) | IC50
CCn1c(=O)[nH]/c(=N\c2ccc(Oc3ccc(C(=O)OC)nc3)cc2)n(Cc2ccc(C)cc2)c1=O [Compound I-2106] | 2 nM
CCc1nc2ccc(/N=c3\[nH]c(=O)n(CCCCC(=O)OC)c(=O)n3Cc3ccc(Cl)cc3)cc2s1 [Compound I-2183] | 1 nM
CCCc1ccc(/N=c2\[nH]c(=O)n(CCC(=O)OCC)c(=O)n2Cc2ccc(Cl)cc2)cc1C [Compound I-1250] | 54 nM
CCOc1ccc(/N=c2\[nH]c(=O)n(C[C@H](C)C(=O)O)c(=O)n2Cc2ccc(C)cc2)cc1F [Compound I-0610] | 35 nM
COC(=O)CCCn1c(=O)[nH]/c(=N\c2ccc(Oc3ccncc3)cc2)n(Cc2ccc(Cl)cc2)c1=O [Compound I-1245] | 3 nM
COC(=O)[C@@H](C)Cn1c(=O)[nH]/c(=N\c2ccc3c(c2)CCO3)n(Cc2ccc(Cl)cc2)c1=O [Compound I-0770] | 405 nM
CCn1c(=O)[nH]/c(=N\c2ccc(Oc3ccc(N)nc3)cc2)n(Cc2ccc(Cl)cc2)c1=O [Compound I-2214] | 22 nM
CCn1c(=O)[nH]/c(=N\c2ccc(OCc3noc(C)n3)cc2)n(Cc2ccc(Cl)cc2)c1=O [Compound I-2200] | 545 nM
O=C(O)Cn1c(=O)[nH]/c(=N\c2ccc(OC3CCC3)cc2)n(Cc2ccc(Cl)cc2)c1=O [Compound I-1943] | 258 nM
CCn1c(=O)[nH]/c(=N\c2ccc(Oc3cccc(C(N)=O)n3)cc2)n(Cc2ccc(Cl)cc2)c1=O [Compound I-2145] | 8 nM
COC(=O)[C@@H](C)Cn1c(=O)[nH]/c(=N\c2ccc(OC3CCCCC3)cc2)n(Cc2ccc(C)cc2)c1=O [Compound I-1219] | 29 nM
CCn1c(=O)[nH]/c(=N\c2ccc(Oc3cncc(C(=O)O)c3)cc2)n(CC2CCC3(CC2)CC3)c1=O [Compound I-2175] | 13 nM
COC(=O)[C@@H](C)Cn1c(=O)[nH]/c(=N\c2ccc(CC(C)C)c(F)c2)n(Cc2ccc(C)cc2)c1=O [Compound I-1252] | 23 nM
CCOC(=O)C1(Cn2c(=O)[nH]/c(=N\c3ccc(OC(C)C)c(C)c3)n(Cc3ccc(Cl)cc3)c2=O)CC1 [Compound I-0694] | 13 nM
COC(=O)[C@@H](C)Cn1c(=O)[nH]/c(=N\c2ccc(C3CC3)cc2)n(Cc2ccc(C)cc2)c1=O [Compound I-1460] | 272 nM
COC(=O)[C@@H](C)Cn1c(=O)[nH]/c(=N\c2ccc(CCO)cc2)n(Cc2ccc(Cl)cc2)c1=O [Compound I-0657] | 471 nM
NC(=O)CCn1c(=O)[nH]/c(=N\c2ccc(OC3CCC3)cc2)n(Cc2ccc(Cl)cc2)c1=O [Compound I-1915] | 23 nM
CCn1c(=O)[nH]/c(=N\c2ccc(-n3cc(C(=O)OC)ccc3=O)cc2)n(Cc2ccc(Cl)cc2)c1=O [Compound I-2033] | 622 nM
CCn1c(=O)[nH]/c(=N\c2ccc(Oc3cncc(C(=O)O)c3)cc2)n(Cc2ccc(Cl)cn2)c1=O [Compound I-2164] | 125 nM
COc1cc(/N=c2\[nH]c(=O)n(CCC(=O)O)c(=O)n2Cc2ccc(C)cc2)ccc1OC(C)C [Compound I-1264] | 31 nM
CCOC(=O)CCn1c(=O)[nH]/c(=N\c2ccc(Oc3ccnc(O)c3)cc2)n(Cc2ccc(Cl)cc2)c1=O [Compound I-1434] | 2 nM
CCn1c(=O)[nH]/c(=N\c2ccc(Oc3ccnc(NC(=O)NC4CC4)c3)cc2)n(Cc2ccc(Cl)cc2)c1=O [Compound I-2213] | 2 nM
Cc1ccc(Cn2c(=O)n(C[C@H](C)C(=O)O)c(=O)[nH]/c2=N\c2cnc(Oc3ccccc3)c(Cl)c2)cc1 [Compound I-1476] | 262 nM

same assay, conditions: C6BU-1 cells stably expressing human P2X3 receptor, Fluo-3 fluorescence, FDSS 3000

Structure (SMILES) | IC50
Cc1ccc(Cn2c(=O)n(C[C@H](C)C(=O)O)c(=O)[nH]/c2=N\c2ccc(Cl)c(C(F)(F)F)c2)cc1 [Compound I-1003] | 229 nM
CC(C)Oc1ccc(/N=c2\[nH]c(=O)n(CCC(=O)O)c(=O)n2CC2(C)CCCCC2)cc1F [Compound I-1809] | 339 nM
CCc1oc2ccc(/N=c3\[nH]c(=O)n(CC(C)(CO)CO)c(=O)n3Cc3ccc(Cl)cc3)cc2c1C [Compound I-1644] | 5 nM
Cc1cc(/N=c2\[nH]c(=O)n(C3CN(C(=O)OC(C)(C)C)C3)c(=O)n2Cc2ccc(Cl)cc2)ccc1OC(C)C [Compound I-1641] | 20 nM
COC(=O)[C@@H](C)Cn1c(=O)[nH]/c(=N\c2ccc(C3CCCCC3)cc2)n(Cc2ccc(C)cc2)c1=O [Compound I-1087] | 71 nM
Cc1cc(/N=c2\[nH]c(=O)n(C[C@H](C)C(=O)O)c(=O)n2Cc2ccc(Cl)cc2)ccc1CCC1CC1 [Compound I-1024] | 161 nM
COC(=O)[C@@H](C)Cn1c(=O)[nH]/c(=N\c2ccc(OC(C)C)c(O)c2)n(Cc2ccc(C)cc2)c1=O [Compound I-1128] | 21 nM
Cc1cc(/N=c2\[nH]c(=O)n(C[C@H](C)C(=O)O)c(=O)n2Cc2ccc(Cl)cc2)ccc1C#CC1CC1 [Compound I-1042] | 148 nM
CCCc1nc2ccc(/N=c3\[nH]c(=O)n(CCC(=O)O)c(=O)n3Cc3ccc(C)cc3)cc2s1 [Compound I-1560] | 51 nM
Cc1ccc(Cn2c(=O)n(C[C@H](C)C(=O)O)c(=O)[nH]/c2=N\c2cccc(CC(C)C)c2)cc1 [Compound I-1137] | 678 nM
CC[C@@H](C)Oc1ccc(/N=c2\[nH]c(=O)n(CCC(=O)O)c(=O)n2Cc2ccc(C)cc2)cc1C [Compound I-1029] | 35 nM
CCn1c(=O)[nH]/c(=N\c2ccc(Oc3ccnc(O)c3)cc2)n(Cc2ccc(Cl)cc2)c1=O [Compound I-1621] | 4 nM
COC(=O)[C@H](C)[C@H](C)n1c(=O)[nH]/c(=N\c2ccc3oc4ccccc4c3c2)n(Cc2ccc(Cl)cc2)c1=O [Compound I-1827] | 913 nM
Cc1cc(/N=c2\[nH]c(=O)n(CC3COC(C)(C)OC3)c(=O)n2Cc2ccc(Cl)cc2)ccc1OC(C)C [Compound I-1899] | 4 nM
COC(=O)[C@@H](C)Cn1c(=O)[nH]/c(=N\c2cccc(SC)c2)n(Cc2ccc(C)cc2)c1=O [Compound I-1153] | 71 nM
Cc1cc(/N=c2\[nH]c(=O)n(CC3(CO)COC3)c(=O)n2Cc2ccc(Cl)cc2)ccc1OC(C)C [Compound I-0906] | 8 nM
C/C=C\c1ccc(Cn2c(=O)n(C[C@H](C)C(=O)O)c(=O)[nH]/c2=N\c2ccc(OC(C)C)cc2)cc1 [Compound I-1150] | 551 nM
Cc1ccc(Cn2c(=O)n(C[C@H](C)C(=O)O)c(=O)[nH]/c2=N\c2ccc(C3CCCCC3)cc2)cc1 [Compound I-1108] | 50 nM
COC(=O)[C@H](C)Cn1c(=O)[nH]/c(=N\c2ccc(OCC3CC3)cc2)n(Cc2ccc(Cl)cc2)c1=O [Compound I-1036] | 5 nM
CCn1c(=O)[nH]/c(=N\c2ccc(Oc3cccc(CC(=O)O)c3)cc2)n(Cc2ccc(Cl)cc2)c1=O [Compound I-1894] | 23 nM
CCn1c(=O)[nH]/c(=N\c2ccc(Oc3cc(O)ncn3)cc2)n(Cc2ccc(Cl)cc2)c1=O [Compound I-1888] | 10 nM

same assay, conditions: human P2X3 receptor, Test Example 1

Structure (SMILES) | IC50
CCn1c(=O)[nH]/c(=N\c2ccc(Oc3cnc(C(=O)O)cn3)cc2)n(Cc2ccc(Cl)cc2)c1=O [Compound I-2296] | 5 nM
CNC(=O)[C@H](C)n1c(=O)[nH]/c(=N\c2ccc(Oc3ccon3)cc2)n(Cc2ccc(Cl)cc2)c1=O [Compound I-2535] | 44 nM
CCOc1ccc(/N=c2\[nH]c(=O)n([C@H](C)CC(=O)O)c(=O)n2Cc2ccc(C)cc2)cc1Cl [Compound I-0879] | 58 nM
CCn1c(=O)[nH]/c(=N\c2ccc(Oc3cccc(C#N)c3)cc2)n(Cc2ccc(Cl)cc2)c1=O [Compound I-2305, 1-(4-chlorobenzyl)-6-[4-(3-cyanophenoxy)phenylimino]-3-ethyl-1,3,5-triazinane-2,4-dion] | 4 nM
Cc1ccc(Cn2c(=O)n(CCC(=O)O)c(=O)[nH]/c2=N\c2ccc(Oc3cccc(C#N)n3)cc2)cc1 [Compound I-2634] | 11 nM
CCn1c(=O)[nH]/c(=N\c2ccc(Oc3ccc(C(=O)OC)nc3)cc2)n(Cc2ccc(Cl)cn2)c1=O [Compound I-2275] | 10 nM
CCOC(=O)CCn1c(=O)[nH]/c(=N\c2ccc(Oc3ccon3)cc2)n(Cc2ccc(Cl)cc2)c1=O [Compound I-2434] | 4 nM
NC(=O)Cn1c(=O)[nH]/c(=N\c2ccc(Oc3cnsn3)cc2)n(Cc2ccc(Cl)cc2)c1=O [Compound I-2675] | 13 nM
Cc1cc(Oc2ccc(/N=c3\[nH]c(=O)n(C[C@H]4COC(C)(C)O4)c(=O)n3Cc3ccc(Cl)cc3)cc2)n(C)n1 [Compound I-2368] | 13 nM
CCn1c(=O)[nH]/c(=N\c2ccc(Oc3cc(C(=O)O)n(C)n3)cc2)n(Cc2ccc(Cl)cc2)c1=O [Compound I-2491] | 74 nM
COCCn1c(=O)[nH]/c(=N\c2ccc(Oc3cncc(C(=O)O)c3)cc2)n(Cc2ccc(Cl)cc2)c1=O [Compound I-2547] | 8 nM
O=c1[nH]/c(=N\c2ccc(Oc3ccon3)cc2)n(Cc2ccc(Cl)cc2)c(=O)n1CCCO [Compound I-2358] | 6 nM
O=C(Cn1c(=O)[nH]/c(=N\c2ccc(Oc3cccc(F)n3)cc2)n(Cc2ccc(Cl)cc2)c1=O)NCCO [Compound I-2679] | 5 nM
O=c1[nH]/c(=N\c2ccc(Oc3ccon3)cc2)n(Cc2ccc(Cl)cc2)c(=O)n1CCOCCO [Compound I-2490] | 10 nM
Cn1c(=O)[nH]/c(=N\c2ccc(Oc3cccc(C(N)=O)n3)cc2)n(C[C@H]2CC[C@H](C)CC2)c1=O [Compound I-2463] | 3 nM
COC(=O)[C@@H](C)Cn1c(=O)[nH]/c(=N\c2ccc(OCC(C)C)c(C)c2)n(Cc2ccc(C)cc2)c1=O [Compound I-0832] | 103 nM
COc1ccc(CNc2nc(=O)n(Cc3ccc(Cl)cc3)/c(=N/c3ccc(OC(C)C)cc3)[nH]2)c(OC)c1 [Compound I-2252] | 769 nM
CC[C@@H](Cn1c(=O)[nH]/c(=N\c2ccc(OC(C)C)c(C)c2)n(Cc2ccc(C)cc2)c1=O)C(=O)O [Compound I-0886] | 76 nM
O=c1[nH]/c(=N\c2ccc(Oc3ccn[nH]3)cc2)n(Cc2ccc(Cl)cc2)c(=O)n1CCCO [Compound I-2452] | 36 nM
CCn1c(=O)[nH]/c(=N\c2ccc(Oc3cncc(C)n3)cc2)n(Cc2ccc(Cl)cc2)c1=O [Compound I-2638] | 15 nM
CCn1c(=O)[nH]/c(=N\c2ccc3nc(N(C)C)sc3c2)n(Cc2ccc(Cl)cc2)c1=O [Compound I-2267] | 331 nM

— patent US9718790B2, “Triazine derivative and pharmaceutical composition having an analgesic activity comprising the same” (SHIONOGI & CO., LTD., priority 2010, dated 2017)
